{"source": "paper PMC4893612", "about": "(Scientific Reports, 2016)", "key": {"[1]": {"system": "KMS-11 multiple myeloma cells", "type": "in vivo", "settings": "3 mg/kg intravenous, 10 days; SCID mice", "method": "Two different multiple myeloma models were used. Experimental protocols and methods were performed by Accelera (Nerviano, Italy) in accordance with guidelines and with permission from the local ethics committee (Nerviano Medical Sciences (NMS) Ethic Committee). All experimental protocols were approved by the Nerviano Medical Sciences (NMS) Ethic Committee. Study director was Marina Ciomei. SCID female mice were obtained from Charles River, Italy. Body weights at the day of tumor implant were between 19 and 22 grams. Treatment started at day 7 after injection of tumor cells and continued for 10 consequtive days. Mice were monitored daily for mortality and clinical signs. In the KMS-11 model, antitumor efficacy was evaluated in terms of survival increase respect to control. In the RPMI8226 model, the growth of subcutaneous tumors was recorded. […] A gray-scale image of the mice was captured, followed by an overlay of a bioluminescence map representing the spatial distribution of photons detected from cleaved luciferin in the cancer cells expressing luciferase. Signal intensity was quantified using a customized version of the IGOR Pro version 4.09A Software (WaveMetrics, Inc., Lake Oswego, OR) called Living Image version 3.00 (Xenogen). Photon emission was measured as whole-body radiance and the individual regions of interest (ROIs) were manually selected. […]"}, "[2]": {"system": "KMS-11", "assay": "MTT antiproliferative assay, KMS-11", "type": "cell-based", "settings": "Homo sapiens, 72 hours", "method": "(§1) Cell viability was monitored by the MTT (3-(4,5-dimethylthiazol-2-yl)-2,5-diphenyltetrazolium bromide) assay. For the MTT assay, cells were suspended at 5 × 10^5 cells/ml, and 100 μl aliquots were dispended into 96-well microtiter plates and exposed to drugs as described using DMSO control. At the end of incubations, 10 μl of a stock solution of 5 mg/ml MTT (3-(4,5-dimethylthiazol-2-yl)-2,5-diphenyltetrazolium bromide), was added into each well, and the plates were incubated 4 hours at 37 °C. Formazan crystals were dissolved with 100 μl of 10% SDS/10 mM HCl solution overnight at 37 °C. Since MTT assays are affected by mitochondrial activity, and since OXPHOS is affected by VLX1570 (unpublished observation), we used the acid phosphatase method[49] to determine cell viability in some experiments. After washing twice with PBS, cells were lysed in 100 μl of 0.1 M sodium acetate, 0,1% Triton X-100, p-nitrophenylphosphate (Pierce Biotechnology Inc, Rockford, IL) and incubated for 90 min at 37 °C. At the end of the incubation, 10 μl NaOH was added to each well and A405 was determined."}, "[3]": {"system": "proteasome DUB activity", "parameters": "method as in PMID 25854145", "settings": "competitive inhibitor; read-out: IC50, inhibition of proteasome DUB activity in vitro; cited from earlier work"}, "[4]": {"system": "OPM-2", "assay": "MTT antiproliferative assay, OPM-2", "type": "cell-based", "settings": "Homo sapiens, 72 hours", "method": "as §1"}, "[5]": {"target": "T1, UCHL5 (Homo sapiens, UniProt Q9Y5K5)", "T1 sequence (Q9Y5K5 1-329)": "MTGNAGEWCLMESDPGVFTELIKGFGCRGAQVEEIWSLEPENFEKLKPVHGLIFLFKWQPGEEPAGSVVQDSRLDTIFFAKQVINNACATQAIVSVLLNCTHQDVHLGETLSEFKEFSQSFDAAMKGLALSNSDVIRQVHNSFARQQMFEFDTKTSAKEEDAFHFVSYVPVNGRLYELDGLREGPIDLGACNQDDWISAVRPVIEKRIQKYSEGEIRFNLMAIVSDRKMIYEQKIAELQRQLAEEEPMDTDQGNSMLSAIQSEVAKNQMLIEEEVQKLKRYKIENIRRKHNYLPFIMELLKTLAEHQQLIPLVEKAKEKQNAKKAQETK", "assay": "SPR binding to recombinant UCHL5, NTA chip", "settings": "protein from ProSpec, read-out: UCHL5(P) KD", "text": "A BIACORE T200 was used for characterization of the interaction between compounds and USP14, UCHL5 and 26S proteasome. The standard BIACORE protocols were used for NTA chip (Ni/His-tag immobilization) and CM7 chip for compound interaction studies with slight modification described below. The x6 his-tagged USP14 and UCHL5 proteins were coupled to a Series S NTA BIACORE sensor chip in the BIACORE T200 using the his-tags for adherence of the proteins to the surface and an amine coupling procedure for covalent attachment to the chip surface. NTA chip was cleaned using three 500 μM EDTA injections followed by an injection of 500 μM Ni^2+ and activation of the chip surface with EDC/NHS injection according to BIACORE standard methods. Each chip has four separate areas, which were handled separately during the immobilization procedure. Area 1 was used as blank reference surface, area 2–4 was coupled with investigated recombinant proteins or complexes. Proteins were diluted in running buffer (10 mM HEPES, 150 mM NaCl, 0,005% Tween 20) to typically 10 μg/ml before injection(1 mL) over the prepared surfaces. […] The immobilization procedure was followed by injections of compound concentration series of VLX1570. […] Rmax and KD were calculated using Langmuir binding isotherms as provided in the Biacore software."}, "[6]": {"target": "T2, UCHL5 (Homo sapiens, UniProt Q9Y5K5)", "T2 construct": "purchased Boston Biochem E-366", "assay": "HA-Ub-VS active-site labeling of purified 19S, UCHL5", "type": "biochemical", "settings": "purified 19S RP; compared with USP14", "method": "Cell extract proteins were resolved by Tris-Acetate PAGE gels (Invitrogen, Carlsbad, CA) and transferred onto a polyvinylidene difluoride (PVDF) membrane for western blotting. For Ub-VS labeling, we lysed cell pellets from control or treated cells with buffer (50 mM HEPES pH 7.4, 250 mM sucrose, 10 mM MgCl2, 2 mM ATP, 1 mM DTT and 1%NP-40) on ice for 30 min and removed debris by centrifugation. We labeled 25 μg of protein with 1 μM Ub-VS for 30 min at 37 °C. We resolved samples by SDS-PAGE and performed immunoblotting. For HA-Ub-VS labeling, we pretreated purified 19S (5 nM) with DMSO or 2.5, 5, 10, 15 or 25μM 1570 for 10 min at room temperature, which followed with labeling with 1 μM HA-Ub-VS for 30 min at 37 °C and immunoblotting."}, "[7]": {"system": "myeloma cells", "assay": "CFSE cell proliferation assay", "type": "cell-based, human", "settings": "0.25 μM or 0.5 μM; 72 hours", "method": "Cell proliferation was measured using the Cell trace^TM CSFE cell proliferation kit. Cells were suspended at 5 × 10^5 cells/ml, incubated with CellTrace^TM reagent for 20 minutes and exposed to the drug at indicated concentrations using DMSO as a control. After 72 h cells were collected, washed twice in 1× PBS, fixed with 3,7% formaldehyde and analysed by flow cytometry."}}, "data": [{"smiles": "C=CC(=O)N1CC/C(=C\\c2ccc(F)c([N+](=O)[O-])c2)C(=O)/C(=C/c2ccc(F)c([N+](=O)[O-])c2)C1", "note": "[VLX1570]", "values": [{"measurement": "survival of the animals", "setting": "[1]", "result": "increased the survival"}, {"measurement": "IC50", "setting": "[2]", "result": "43 ± 2", "unit": "nM"}, {"measurement": "IC50", "setting": "[3]", "result": "~10", "unit": "µM"}, {"measurement": "IC50", "setting": "[4]", "result": "126 ± 3", "unit": "nM"}, {"measurement": "Kd", "setting": "[5]", "result": 14, "unit": "µM"}, {"measurement": "inhibition of UCHL5 (Ub-VS labeling)", "setting": "[6]", "result": "required higher drug concentrations"}, {"measurement": "cell cycle arrest (CFSE dilution)", "setting": "[7]", "result": "arrest myeloma cells in the cell cycle"}]}]}
